Laboratory results as given in patent US8735388B2, “Heterocyclic compounds with affinity to muscarinic receptors” (Abbvie B. V. A., priority 2007, dated 2014).
Like-named read-outs stand apart in the source and are kept apart here.

Experiments:
[1] = target: T1, Muscarine M1 (GPCR-A-MA-ACH M1) (Homo sapiens, UniProt P11229); test: Muscarine M1 cell-based functional assay (CHO cells, Ca2+ - FLIPR Fluorimetry); conditions: human M1, CHO cells; agonist mode, reference agonist acetylcholine; read-out: Cell funct. Musc. M1 Agonism pEC50 (converted)
T1 construct: expressed in transfected cells; host or cells: CHO cells
T1 sequence (P11229 1-460): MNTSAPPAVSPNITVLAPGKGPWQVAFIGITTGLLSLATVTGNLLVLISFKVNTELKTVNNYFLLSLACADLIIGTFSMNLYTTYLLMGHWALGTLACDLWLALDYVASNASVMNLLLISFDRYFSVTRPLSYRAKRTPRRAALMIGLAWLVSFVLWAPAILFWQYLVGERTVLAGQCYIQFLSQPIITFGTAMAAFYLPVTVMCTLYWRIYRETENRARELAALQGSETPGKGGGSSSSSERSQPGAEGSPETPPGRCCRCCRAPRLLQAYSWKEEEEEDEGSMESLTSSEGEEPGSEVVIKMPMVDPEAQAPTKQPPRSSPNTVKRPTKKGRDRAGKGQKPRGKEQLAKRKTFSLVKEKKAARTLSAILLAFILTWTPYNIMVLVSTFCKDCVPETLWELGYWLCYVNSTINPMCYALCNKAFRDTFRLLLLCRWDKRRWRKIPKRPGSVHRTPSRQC

[2] = target: T2, Muscarine M4 (GPCR-A-MA-ACH M4) (Homo sapiens, UniProt P08173); test: Muscarine M4 receptor binding, 3H-Oxotremorine
T2 construct: expressed in transfected cells; host or cells: CHO cells
T2 sequence (P08173 1-479): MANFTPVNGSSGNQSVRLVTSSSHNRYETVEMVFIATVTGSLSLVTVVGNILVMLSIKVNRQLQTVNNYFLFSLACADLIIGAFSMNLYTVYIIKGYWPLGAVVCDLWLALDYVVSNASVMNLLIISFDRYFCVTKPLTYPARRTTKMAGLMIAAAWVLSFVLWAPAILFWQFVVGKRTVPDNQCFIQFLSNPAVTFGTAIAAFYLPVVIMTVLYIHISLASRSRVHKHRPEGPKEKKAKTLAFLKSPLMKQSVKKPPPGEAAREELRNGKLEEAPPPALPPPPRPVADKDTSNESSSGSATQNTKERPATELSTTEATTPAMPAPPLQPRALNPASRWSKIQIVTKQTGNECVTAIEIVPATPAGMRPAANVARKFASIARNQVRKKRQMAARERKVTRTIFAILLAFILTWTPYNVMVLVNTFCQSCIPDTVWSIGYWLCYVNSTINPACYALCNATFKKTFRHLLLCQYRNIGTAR
Procedure: (§1) Compounds were dissolved in DMSO (10 mM) and diluted in assay buffer to test concentration. Prime testing was at 10 μM; for actives (PI, percent inhibition with respect to total and non-specific binding >40%) testing was continued at lower concentrations in 10-fold dilutions: 1 μM, 0.1 μM, etc.
(§2) Following incubation of compound with the receptor preparation (from ‘Tissue’) and the Ligand at the time and temperature indicated, the receptor preparations were rapidly filtered under vacuum through glass fibre filters; the filters were washed extensively with an ice-cold buffer using a harvester. Bound radioactivity was measured by scintillation counting using a liquid scintillation cocktail.
(§3) Results were expressed as percentage of total Ligand binding and that of Non Specific Binding, per concentration of Compound tested (duplicates); from the concentration—displacement curves IC50 values were determined by non-linear regression analysis using Hill equation curve fitting. The inhibition constants (Ki) were calculated from the Cheng-Prushoff equation Ki=IC50/(1+L/Kd), where L is the concentration of radioligand in the assay, and Kd the affinity of the radioligand for the receptor. Results were expressed as pKi's, means±SD of at least 2 separate experiments; i.e. outliers (outside+/−1 std of mean) and discrepancies were excluded.

[3] = target: T2, Muscarine M4 (GPCR-A-MA-ACH M4); test: Muscarine M4 cell-based functional assay (CHO cells, Ca2+ - Aequorin luminescence)
Procedure: Compounds were dissolved in DMSO (10 mM) and diluted in assay buffer to test concentration. Prime testing was at 1 μM; for actives in antagonist mode (PI, percent inhibition with respect to reference agonist and blank>30%) as well as actives in agonist mode (PS, percent stimulation with respect to reference agonist and blank>30%) testing was continued at lower concentrations in 10-fold dilutions: 0.1 μM, 0.01 μM, etc.
Cells were incubated with compound and the response indicated was measured.
The results are expressed as a percent of reference agonist values and blanks in the presence of the test compound, percent stimulation for agonist mode; for the antagonist mode (test compound in the presence of reference agonist) as percent inhibition. The EC50 values (concentration causing a half-maximal stimulation of control values), IC50 values (concentration causing a half-maximal inhibition of control values) were determined by non-linear regression analysis of the concentration-response curves using Hill equation curve fitting.

[4] = target: T2, Muscarine M4 (GPCR-A-MA-ACH M4); test: Muscarine M4 receptor binding, 3H-4DAMP; conditions: human M4, CHO cells, ligand 0.2 nM, 60 min/22° C.; for Ki: read-out: RB Musc. M4 3H-DAMP pKi (converted)
Procedure: as §1, §2, §3

[5] = target: T1, Muscarine M1 (GPCR-A-MA-ACH M1); test: Muscarine M1 receptor binding, 3H-Pirenzepine; conditions: human M1, CHO cells, ligand 2 nM, 60 min/22° C.; for Ki: read-out: RB Musc. M1 3H-Pirenzepine pKi (converted)
Procedure: as §1, §2, §3

[6] = human M4, CHO cells, agonist mode, reference agonist oxotremorine, read-out: Cell funct. Musc. M4 Agonism pEC50 (converted)
[7] = human M4, CHO cells, receptor binding, ligand 6 nM, 30 min/25° C., read-out: RB Musc. M4 3H-Oxotremorine pKi (converted)

Molecule CCCCSc1c[nH]nc1[C@@H]1CN2CCC[C@H]1C2 (relative stereo) [Compound 60B, Endo-6-(4-butylsulfanyl-1H-pyrazol-3-yl)-1-azabicyclo[3.2.1]octane] has an EC50 [1] of over 1000 nM, a Ki [2] of 251 nM and an EC50 [3, 6] of over 10000 nM. It also gave a Ki [4] of 158 nM and a Ki [5] of 398 nM.
CCCCCc1c[nH]nc1C1=CCCN(C)C1 [Compound 9, 3-(4-Pentyl-1H-pyrazol-3-yl)-1,2,5,6-tetrahydro-1-methylpyridine] showed an EC50 [1] of 126 nM, a Ki [2, 7] of 398 nM and an EC50 [3, 6] of over 10000 nM. For the same molecule, the Ki [4] was 316 nM and the Ki [5] was 1260 nM.
CCCCc1c[nH]nc1C1=CCCN(C)C1 [Compound 16, 3-(4-Butyl-1H-pyrazol-3-yl)-1,2,5,6-tetrahydro-1-methylpyridine] was tested, and the EC50 [3, 6] was over 10000 nM.
CCCCCCSc1c[nH]nc1C1=CCCN(C)C1 [Compound 22H, 3-(4-Hexylsulfanyl-1H-pyrazol-3-yl)-1,2,5,6-tetrahydro-1-methylpyridine] showed an EC50 [1] of 126 nM, a Ki [2, 7] of 126 nM and an EC50 [3, 6] of 10 nM. It also gave a Ki [4] of 63.1 nM and a Ki [5] of 200 nM.
CN1CCC=C(c2n[nH]cc2SCCCc2ccccc2)C1 [Compound 22I, 3-[4-(3-Phenyl-propylsulfanyl)-1H-pyrazol-3-yl]-1,2,5,6-tetrahydro-1-methylpyridine] was tested, and the EC50 [1] was 100 nM, the Ki [2, 7] was 100 nM and the EC50 [3, 6] was 251 nM. For the same molecule, the Ki [4] was 251 nM and the Ki [5] was 794 nM.
CN1CCC=C(c2n[nH]cc2SCC=Cc2ccccc2)C1 [Compound 22K, 3-[4-(3-Phenyl-allylsulfanyl)-1H-pyrazol-3-yl]-1,2,5,6-tetrahydro-1-methylpyridine] gave an EC50 [1] of 100 nM, a Ki [2, 7] of 398 nM and an EC50 [3, 6] of 1260 nM. The Ki [4] was 631 nM and the Ki [5] was 1260 nM.
CN1CCC=C(c2n[nH]cc2SCc2ccco2)C1 [Compound 22M, 3-[4-(Furan-2-yl-methylsulfanyl)-1H-pyrazol-3-yl]-1,2,5,6-tetrahydro-1-methylpyridine] showed a Ki [2, 7] of 251 nM, an EC50 [3, 6] of over 10000 nM and a Ki [4] of 398 nM. For the same molecule, the Ki [5] was 501 nM.
For CN1CCC=C(c2n[nH]cc2SCc2ccccc2)C1 [Compound 22N, 3-(4-Benzylsulfanyl-1H-pyrazol-3-yl)-1,2,5,6-tetrahydro-1-methylpyridine], the Ki [2, 7] was 251 nM, the EC50 [3, 6] was over 10000 nM and the Ki [4] was 251 nM. The Ki [5] was 398 nM.
For COCCOCCSc1c[nH]nc1C1=CCCN(C)C1 [Compound 22P, 3-{4-[2-(2-Methoxy-ethoxy)-ethylsulfanyl]-1H-pyrazol-3-yl}-1,2,5,6-tetrahydro-1-methylpyridine], the EC50 [1] was 398 nM, the Ki [2, 7] was 6310 nM and the EC50 [3, 6] was 1260 nM. The Ki [4] was 6310 nM and the Ki [5] was over 10000 nM.
Molecule C=CCSc1c[nH]nc1C1=CCCN(C)C1 [Compound 22Q, 3-(4-Allylsulfanyl-1H-pyrazol-3-yl)-1,2,5,6-tetrahydro-1-methylpyridine] has a Ki [2, 7] of 126 nM, an EC50 [3, 6] of over 10000 nM and a Ki [4] of 501 nM. It also gave a Ki [5] of 794 nM.
Work on CN1CCC=C(c2n[nH]cc2SCCC#N)C1 [Compound 22R, 3-[3-(1-Methyl-1,2,5,6-tetrahydro-pyridin-3-yl)-1H-pyrazol-4-ylsulfanyl]-propionitrile] yielded a Ki [2, 7] of 2000 nM, an EC50 [3, 6] of over 10000 nM and a Ki [4] of 3980 nM. The Ki [5] was 12600 nM.
With CCCCSc1cc(C2=CCCN(C)C2)n[nH]1 [Compound 26, 3-(5-Butylsulfanyl-1H-pyrazol-3-yl)-1,2,5,6-tetrahydro-1-methylpyridine] the Ki [2, 7] was 251 nM, the EC50 [3, 6] was over 10000 nM and the Ki [4] was 200 nM. It also gave a Ki [5] of 158 nM.
CN1CCC=C(c2n[nH]cc2OCCCc2ccccc2)C1 [Compound 33A, 3-[4-(3-Phenyl-propoxy)-1H-pyrazol-3-yl]-1,2,5,6-tetrahydro-1-methylpyridine] gave an EC50 [1] of 126 nM, a Ki [2, 7] of 501 nM and an EC50 [3, 6] of 794 nM. The Ki [4] was 251 nM and the Ki [5] was 1260 nM.
Work on CCCCOc1c[nH]nc1C1=CCCN(C)C1 [Compound 33C, 3-(4-Butyloxy-1H-pyrazol-3-yl)-1,2,5,6-tetrahydro-1-methylpyridine] yielded an EC50 [1] of 126 nM, a Ki [2, 7] of 1580 nM and an EC50 [3, 6] of 1260 nM. It also gave a Ki [4] of 316 nM and a Ki [5] of 1260 nM.
C=CCCOc1c[nH]nc1C1=CCCN(C)C1 [Compound 33D, 3-(4-But-3-enyloxy-1H-pyrazol-3-yl)-1,2,5,6-tetrahydro-1-methylpyridine] showed an EC50 [1] of 100 nM, a Ki [2, 7] of 1580 nM and an EC50 [3, 6] of 1260 nM. For the same molecule, the Ki [4] was 1000 nM and the Ki [5] was 2510 nM.
Molecule CCCCCCCOc1c[nH]nc1C1=CCCN(C)C1 [Compound 33E, 3-(4-Heptyloxy-1H-pyrazol-3-yl)-1,2,5,6-tetrahydro-1-methylpyridine] has an EC50 [1] of 200 nM, a Ki [2, 7] of 158 nM and an EC50 [3, 6] of 631 nM. For the same molecule, the Ki [4] was 316 nM and the Ki [5] was 1000 nM.
Work on CCCC(=O)Nc1c[nH]nc1C1=CCCN(C)C1 [Compound 41] yielded a Ki [2, 7] of over 10000 nM, an EC50 [3, 6] of over 10000 nM and a Ki [4] of over 10000 nM. For the same molecule, the Ki [5] was over 10000 nM.
Molecule CCCCNc1c[nH]nc1C1=CCCN(C)C1 [Compound 42, Butyl-[3-(1-Methyl-1,2,5,6-tetrahydro-pyridin-3-yl)-1H-pyrazol-4-yl]-amine] has a Ki [2, 7] of 3980 nM, an EC50 [3, 6] of over 10000 nM and a Ki [4] of 5010 nM. The Ki [5] was 7940 nM.
In the case of CN1CCC=C(c2n[nH]cc2C=Cc2cccc(F)c2)C1 [Compound 47B, 3-{-4-2[-(3-Fluor-Phenyl)-vinyl]-1H-pyrazol-3-yl}-1,2,5,6-tetrahydro-1-methylpyridine], the “RB Musc. M4 3H-Oxotremorine pKi” value ([2]; human M4, CHO cells, receptor binding, ligand 6 nM, 30 min/25° C.) is reported as 6.8, the “Cell funct. Musc. M4 Agonism pEC50” value ([3]; human M4, CHO cells, agonist mode, reference agonist oxotremorine) is reported as under 5.0 and the “RB Musc. M4 3H-DAMP pKi” value [4] is reported as 6.5. For the same molecule, the “RB Musc. M1 3H-Pirenzepine pKi” value [5] was 6.1.
For CCCCCSc1c[nH]nc1[C@@H]1CN2CCC[C@H]1C2 [Compound 60A, Endo-6-(4-pentylsulfanyl-1H-Pyrazol-3-yl)-1-azabicyclo[3.2.1]octane], the Ki [2, 7] was 63.1 nM, the EC50 [3, 6] was over 10000 nM and the Ki [4] was 251 nM. The Ki [5] was 398 nM.
With CCCCSc1conc1C1=CCCN(C)C1 [Compound 66A, 3-(4-Butylsulfanyl-isoxazol-3-yl)-1,2,5,6-tetrahydro-1-methylpyridine] the Ki [2, 7] was 79.4 nM, the EC50 [3, 6] was over 10000 nM and the Ki [4] was 39.8 nM. It also gave a Ki [5] of 251 nM.
With CCCCCCSc1conc1C1=CCCN(C)C1 [Compound 66B, 3-(4-Hexylsulfanyl-isoxazol-3-yl)-1,2,5,6-tetrahydro-1-methylpyridine] the Ki [2, 7] was 158 nM, the EC50 [3, 6] was 501 nM and the Ki [4] was 100 nM. It also gave a Ki [5] of 631 nM.
O=C1CCCN1CC#CCN1CCCC1 [oxotremorine, reference compound] was tested, and the EC50 [3] was 40 nM.
